Laboratory results: patent publication US20080227790A1, “Pyridazinone Derivatives and their Use as Pde4 Inhibitors” (Altana Pharma AG, priority 2004, published 2008)

Legend:
[1] = biological target: T1, PDE4B2 (Homo sapiens, UniProt Q07343); test: Inhibition of PDE4B2 activity, modified [3H]cAMP SPA enzyme assay; assay type: biochemical; conditions: recombinant PDE4B2 (GB no. M97515) expressed in SF21 cells; 0.5 μM cAMP; 15 min at 37° C.; read-out: PDE4 Inhibition [measured as −logIC50 (mol/l)] (converted)
T1 construct: made in house; host or cells: SF21 insect cells (baculovirus prepared in SF9 cells; pCR-Bac vector)
Procedure: PDE4B2 (GB no. M97515) was a gift of Prof. M. Conti (Stanford University, USA). It was amplified from the original plasmid (pCMV5) via PCR with primers Rb9 (5′-[…]-3′) and Rb10 (5′-[…]-3′) and cloned into the pCR-Bac vector (Invitrogen, Groningen, NL).
The recombinant baculovirus was prepared by means of homologous recombination in SF9 insect cells. The expression plasmids were cotransfected with Bac-N-Blue (Invitrogen, Groningen, NL) or Baculo-Gold DNA (Pharmingen, Hamburg) using a standard protocol (Pharmingen, Hamburg). Wt virus-free recombinant virus supernatants were selected using plaque assay methods. After that, high-titre virus supernatants were prepared by amplifying 3 times. PDE4B2 was expressed in SF21 cells by infecting 2×10^6 cells/ml with an MOI (multiplicity of infection) between 1 and 10 in serum-free SF900 medium (Life Technologies, Paisley, UK). The cells were cultured at 28° C. for 48-72 hours, after which they were pelleted for 5-10 min at 1000 g and 4° C.
The SF21 insect cells were resuspended, at a concentration of approx. 10^7 cells/ml, in ice-cold (4° C.) homogenization buffer (20 mM Tris, pH 8.2, containing the following additions: 140 mM NaCl, 3.8 mM KCl, 1 mM EGTA, 1 mM MgCl2, 10 mM β-mercaptoethanol, 2 mM benzamidine, 0.4 mM Pefablock, 10 μM leupeptin, 10 μM pepstatin A, 5 μM trypsin inhibitor) and disrupted by ultrasonication. The homogenate was then centrifuged for 10 min at 1000×g and the supernatant was stored at −80° C. until sub-sequent use (see below). The protein content was determined by the Bradford method (BioRad, Munich) using BSA as the standard.
PDE4B2 activity was inhibited by the compounds according to the invention in a modified SPA (scintillation proximity assay) test, supplied by Amersham Biosciences (see procedural instructions “phosphodiesterase [3H]cAMP SPA enzyme assay, code TRKQ 7090”), carried out in 96-well microtitre plates (MTP's). The test volume is 100 μl and contains 20 mM Tris buffer (pH 7.4), 0.1 mg of BSA (bovine serum albumin)/ml, 5 mM Mg^2+, 0.5 μM cAMP (including about 50,000 cpm of [3H]cAMP), 1 μl of the respective substance dilution in DMSO and sufficient recombinant PDE (1000×g supernatant, see above) to ensure that 10-20% of the cAMP is converted under the said experimental conditions. […] After a preincubation of 5 min at 37° C., the reaction is started by adding the substrate (cAMP) and the assays are incubated for a further 15 min; after that, they are stopped by adding SPA beads (50 μl). In accordance with the manufacturer's instructions, the SPA beads had previously been resuspended in water, but were then diluted 1:3 (v/v) in water; the diluted solution also contains 3 mM IBMX to ensure a complete PDE activity stop. After the beads have been sedimented (>30 min), the MTP's are analyzed in commercially available luminescence detection devices. The corresponding IC50 values of the compounds for the inhibition of PDE4B2 activity are determined from the concentration-effect curves by means of non-linear regression.

T1 sequence (Q07343 1-564 isoform Q07343-2): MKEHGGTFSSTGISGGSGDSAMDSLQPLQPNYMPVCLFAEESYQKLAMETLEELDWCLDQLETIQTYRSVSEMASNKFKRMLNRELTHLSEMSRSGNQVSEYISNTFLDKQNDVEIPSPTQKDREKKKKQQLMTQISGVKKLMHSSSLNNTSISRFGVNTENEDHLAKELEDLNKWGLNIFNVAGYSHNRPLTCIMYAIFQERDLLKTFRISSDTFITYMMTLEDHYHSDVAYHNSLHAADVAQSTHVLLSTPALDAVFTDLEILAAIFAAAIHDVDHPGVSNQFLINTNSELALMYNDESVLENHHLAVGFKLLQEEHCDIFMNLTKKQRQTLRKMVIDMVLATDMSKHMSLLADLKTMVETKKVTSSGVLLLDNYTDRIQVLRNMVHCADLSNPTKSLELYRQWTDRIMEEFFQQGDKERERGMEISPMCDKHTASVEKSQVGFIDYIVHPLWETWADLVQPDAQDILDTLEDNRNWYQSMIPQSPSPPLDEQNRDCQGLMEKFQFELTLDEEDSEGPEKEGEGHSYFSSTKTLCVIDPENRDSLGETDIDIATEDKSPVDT

SMILES | melting point | IC50 [1] [nM]
COc1ccc(C2=NN(c3ccc(C(=O)N4CCN(c5ccncc5)CC4)cc3)C(=O)C(C)(C)C2)cc1OC.Cl.Cl [Compound 4, 6-(3,4-Dimethoxy-phenyl)-4,4-dimethyl-2-{4-[1-(4-pyridin-4-yl-piperazin-1-yl)-methanoyl]-phenyl}-4,5-dihydro-2H-pyridazin-3-one dihydrochloride] | 223 to 225 °C | 7.76
COc1ccc(C2=NN(c3ccc(OCC(=O)N4CCN(C)CC4)cc3)C(=O)C(C)(C)C2)cc1OC.Cl [Compound 9, 6-(3,4-Dimethoxy-phenyl)-4,4-dimethyl-2-{4-[2-(4-methyl-piperazin-1-yl)-2-oxo-ethoxy]-phenyl}-4,5-dihydro-2H-pyridazin-3-one hydrochloride] | 198 to 202 °C | –
COc1ccc(C2=NN(c3ccc(OCC(N)=O)cc3)C(=O)C(C)(C)C2)cc1OC [Compound 7, 2-{4-[3-(3,4-Dimethoxy-phenyl)-5,5-dimethyl-6-oxo-5,6-dihydro-4H-pyridazin-1-yl]-phenoxy}-acetamide] | 184 to 187 °C | 10.5
COc1ccc(C2=NN(c3ccc(C(=O)N4CCN(CC(=O)N5CCCC5)CC4)cc3)C(=O)C(C)(C)C2)cc1OC.Cl [Compound 8, 6-(3,4-Dimethoxy-phenyl)-4,4-dimethyl-2-(4-{1-[4-(2-oxo-2-pyrrolidin-1-yl-ethyl)-piperazin-1-yl]-methanoyl}-phenyl)-4,5-dihydro-2H-pyridazin-3-one hydrochloride] | 144 to 146 °C | 7.59
COc1ccc(C2=NN(c3cccc(C(=O)O)c3)C(=O)C(C)(C)C2)cc1OC [Compound 11, 3-[3-(3,4-Dimethoxy-phenyl)-5,5-dimethyl-6-oxo-5,6-dihydro-4H-pyridazin-1-yl]-benzoic acid] | 165 to 167 °C | –
COc1ccc(C2=NN(c3ccc(OCc4ccccc4)cc3)C(=O)C(C)(C)C2)cc1OC [Compound 2, 2-(4-Benzyloxy-phenyl)-6-(3,4-dimethoxy-phenyl)-4,4-dimethyl-4,5-dihydro-2H-pyridazin-3-one] | 137 to 138 °C | 3.98
COc1ccc(C2=NN(c3ccc(C(=O)N4CCN(CCN5CCOCC5)CC4)cc3)C(=O)C(C)(C)C2)cc1OC.Cl.Cl [Compound 3, 6-(3,4-Dimethoxy-phenyl)-4,4-dimethyl-2-(4-{1-[4-(2-morpholin-4-yl-ethyl)-piperazin-1-yl]-methanoyl}-phenyl)-4,5-dihydro-2H-pyridazin-3-one dihydrochloride] | 249 °C (dec.) | 11.2

The next lines start with the values.

melting point | IC50 [1] [nM] | SMILES
108 to 109 °C | – | COc1ccc(C2=NN(c3cccc(C(=O)N4CCOCC4)c3)C(=O)C(C)(C)C2)cc1OC [Compound 13, 6-(3,4-Dimethoxy-phenyl)-4,4-dimethyl-2-[3-(1-morpholin-4-yl-methanoyl)-phenyl]-4,5-dihydro-2H-pyridazin-3-one]
178 to 179 °C | – | COc1ccc(C2=NN(c3ccc(N4CCOCC4)cc3)C(=O)C(C)(C)C2)cc1OC [Compound 16, 6-(3,4-Dimethoxy-phenyl)-4,4-dimethyl-2-(4-morpholin-4-yl-phenyl)-4,5-dihydro-2H-pyridazin-3-one]
165 to 166 °C | 1.74 | COc1ccc(C2=NN(c3ccc(C(=O)N4CCOCC4)cc3)C(=O)C(C)(C)C2)cc1OC [Compound 6, 6-(3,4-Dimethoxy-phenyl)-4,4-dimethyl-2-[4-(1-morpholin-4-yl-methanoyl)-phenyl]-4,5-dihydro-2H-pyridazin-3-one]
196 to 198 °C | 32.4 | COc1ccc(C2=NN(c3ccc(C(=O)O)cc3)C(=O)C(C)(C)C2)cc1OC [Compound 1, 4-(3-{3,4-dimethoxyphenyl}-5,5-dimethyl-6-oxo-5,6-dihydro-4H-pyridazin-1-yl)-benzoic acid]
74 to 79 °C | 15.5 | COc1ccc(C2=NN(c3ccc(OCC(=O)N4CCOCC4)cc3)C(=O)C(C)(C)C2)cc1OC [Compound 10, 6-(3,4-Dimethoxy-phenyl)-4,4-dimethyl-2-[4-(2-morpholin-4-yl-2-oxo-ethoxy)-phenyl]-4,5-dihydro-2Hpyridazin-3-one]
123 to 124 °C | – | COc1ccc(C2=NN(c3ccc(Br)cc3)C(=O)C(C)(C)C2)cc1OC [Compound 15, 2-(4-Bromo-phenyl)-6-(3,4-dimethoxy-phenyl)-4,4-dimethyl-4,5-dihydro-2H-pyridazin-3-one]
165 to 167 °C | – | COc1ccc(C2=NN(c3ccc(CC(=O)N4CCOCC4)cc3)C(=O)C(C)(C)C2)cc1OC [Compound 14, 6-(3,4-Dimethoxy-phenyl)-4,4-dimethyl-2-[4-(2-morpholin-4-yl-2-oxo-ethyl)-phenyl]-4,5-dihydro-2H-pyridazin-3-one]
176 to 178 °C | 6.03 | COc1ccc(C2=NN(c3ccc(O)cc3)C(=O)C(C)(C)C2)cc1OC [Compound 5, 6-(3,4-Dimethoxy-phenyl)-2-(4-hydroxy-phenyl)-4,4-dimethyl-4,5-dihydro-2H-pyridazin-3-one]
